# Experimental data taken from patent publication US9782367B2, “Process for obtaining a modafinil-based pharmaceutical composition, resulting pharmaceutical composition and use thereof” (DEBREGEAS ET ASSOCIES PHARMA, priority 2012, dated 2017).
# Tests used:
# [1] = estimated; absolute bioavailability could not be determined; cited from earlier work
# [2] = cited from earlier work
# [3] = cited from earlier work; remark: listed apart in the source
# [4] = solubility in supercritical fluid (CO2 or tetrafluoroethane); type: physicochemical; details: supercritical CO2, FIG. 1
# Text: From among these supercritical fluids, mention may be made of CO2: the technology of supercritical CO2 is based on the solvent power of CO2 which may be modulated at will depending on the pressure and temperature conditions applied to it.
# A method for extraction with supercritical CO2 operates in a closed circuit. It includes pressurizing units (pumps) and a temperature-setting unit (exchangers) in order to bring CO2 above its critical point.
# The product to be treated is placed in an extractor crossed by the supercritical CO2 flow. Molecules which are soluble in supercritical CO2, therefore extractable, are not very polar compounds with a low molecular mass.
# The table below repeats the result when using S modafinil, and mannitol instead of anhydrous lactose; further the loading level was increased to about 30%.
SMILES,bioavailability [1],solubility in methanol and acetone ([2]; methanol and acetone),solubility in water ([2]; water),elimination half life ([3]; in humans),solubility in CO2 [4],AUC compared with the racemic form ([3]; after administration),variability in plasma levels compared with the racemic form ([3]; after administration)
NC(=O)C[S+]([O-])C(c1ccccc1)c1ccccc1 (racemic) [Modafinil],about 40%,partly soluble,practically insoluble,about 14 hours,acceptable solubility,–,–
"NC(=O)C[S@@+]([O-])C(c1ccccc1)c1ccccc1 (single isomer, unassigned) [levo-rotatory enantiomer (R)]",–,–,–,–,–,larger AUC than the racemic form,less variability
